From PubChem BioAssay AID1117348 (Cheminformatics & Chemogenomics Research Group (CCRG), …, 2015)
Activity calls are given as the source filed them. How the calls were made is not given here.

Test system: HeLa cell cycle, increased S-phase population
Test: HeLa S-phase population increase, dose response, cell-based, IC50 (AID 1117348)

Structure (SMILES)	IC50
CCN(CCCCOC(=O)c1ccc(OC)c(OC)c1)C(C)Cc1ccc(OC)cc1 (centres undefined)	> 10 µM (inactive)
CCc1oc2ccccc2c1C(=O)c1cc(Br)c(O)c(Br)c1	> 10 µM (inactive)
C[C@@H]1C[C@H]2[C@@H]3CCC4=CC(=O)C=C[C@]4(C)[C@@]3(Cl)[C@@H](O)C[C@]2(C)[C@@]1(OC(=O)c1ccco1)C(=O)CCl	> 10 µM (inactive)
CCN(CC)CCNc1ccc(CO)c2sc3ccccc3c(=O)c12	> 10 µM (inactive)
Cc1cc(CC(C)CC(C)(C)C)n(O)c(=O)c1 (centres undefined)	> 10 µM (inactive)
CC(C)=CCNc1ncnc2c1ncn2[C@@H]1O[C@H](CO)[C@@H](O)[C@H]1O	> 10 µM (inactive)
CCc1oc2ccccc2c1C(=O)c1cc(I)c(O)c(I)c1	> 10 µM (inactive)
CN(C)c1ccc2nc3ccc(=[N+](C)C)cc-3sc2c1	> 10 µM (inactive)
CCC(=O)c1ccc(O)cc1	> 10 µM (inactive)
CCCCC1C(=O)N(c2ccccc2)N(c2ccc(O)cc2)C1=O (centres undefined)	> 10 µM (inactive)
COc1cccc2c1C(=O)c1c(O)c3c(c(O)c1C2=O)C[C@@](O)(C(C)=O)C[C@@H]3O[C@H]1C[C@H](N)[C@H](O)[C@H](C)O1	9.6 µM (inactive)
O=C(CCl)c1ccc(Cl)cc1Cl	> 10 µM (inactive)
Oc1ccc([C@H]2CNCc3c2ccc(O)c3O)cc1O	> 10 µM (inactive)
CCCCCCCCCCOCC(O)CN (centres undefined)	> 10 µM (inactive)
O=C1C(I)=CC(=C(c2cc(I)c(O)c(I)c2)c2ccccc2C(=O)O)C=C1I	> 10 µM (inactive)
Clc1ccccc1C(c1ccccc1)(c1ccccc1)n1ccnc1	> 10 µM (inactive)
O=C(Nc1ccc(Br)cc1)c1cc(Br)cc(Br)c1O	> 10 µM (inactive)
COc1cc(NCc2ccc3nc(N)nc(N)c3c2C)cc(OC)c1OC	> 10 µM (inactive)
CC[C@@]1(O)C(=O)OCc2c1cc1n(c2=O)Cc2cc3c(CN(C)C)c(O)ccc3nc2-1	0.082 µM
CCCNCC(O)COc1ccccc1C(=O)CCc1ccccc1 (centres undefined)	> 10 µM (inactive)
O=[N+]([O-])c1ccc(Oc2ccc(N=C=S)cc2)cc1	> 10 µM (inactive)
Nc1nc(F)nc2c1ncn2[C@@H]1O[C@H](CO)[C@@H](O)[C@@H]1O	> 10 µM (inactive)
NCCCC[C@H](N[C@@H](CCc1ccccc1)C(=O)O)C(=O)N1CCC[C@H]1C(=O)O	> 10 µM (inactive)

Structure (SMILES)	IC50
COc1ccc(-c2nc3ccc(C4=NNC(=O)CC4C)cc3[nH]2)cc1 (centres undefined)	> 10 µM (inactive)
CC(C)n1c(/C=C/[C@@H](O)C[C@@H](O)CC(=O)O)c(-c2ccc(F)cc2)c2ccccc21	> 10 µM (inactive)
CCN(CC)CCNC(=O)c1c(C)[nH]c(/C=C2\C(=O)Nc3ccc(F)cc32)c1C	> 10 µM (inactive)
Cc1ccc2nc(N)[nH]c(=O)c2c1Sc1ccncc1	> 10 µM (inactive)
CC(C)c1c(C(=O)Nc2ccccc2)c(-c2ccccc2)c(-c2ccc(F)cc2)n1CC[C@@H](O)C[C@@H](O)CC(=O)O	> 10 µM (inactive)
CC(=O)Oc1ccccc1C(=O)Nc1ncc([N+](=O)[O-])s1	> 10 µM (inactive)
COc1cc(-c2ccc(=O)[nH]n2)ccc1OC(F)F	> 10 µM (inactive)
Cn1cnc([N+](=O)[O-])c1Sc1ncnc2nc[nH]c12	> 10 µM (inactive)
O=Cc1ccc(O)c(O)c1O	> 10 µM (inactive)
O=C1C2CC=CCC2C(=O)N1SC(Cl)(Cl)Cl (centres undefined)	> 10 µM (inactive)
CCc1nc(N)nc(N)c1-c1ccc(Cl)cc1	> 10 µM (inactive)
O=C1c2c(O)ccc(O)c2C(=O)c2c(NCCNCCO)ccc(NCCNCCO)c21	> 10 µM (inactive)
Cc1ccc(S(=O)(=O)NC(=O)NN2CC3CCCC3C2)cc1 (centres undefined)	> 10 µM (inactive)
COc1ccc(-c2ccc3cc(C(=O)O)ccc3c2)cc1C12CC3CC(CC(C3)C1)C2	> 10 µM (inactive)
CC[C@]1(O)C[C@@H]2CN(CCc3c([nH]c4ccccc34)[C@@](C(=O)OC)(c3cc4c(cc3OC)N(C)[C@H]3[C@@](O)(C(=O)OC)[C@H](OC(C)=O)[C@]5(CC)C=CCN6CC[C@]43[C@@H]65)C2)C1	> 10 µM (inactive)
COCCOC(=O)C1=C(C)NC(C)=C(C(=O)OC/C=C/c2ccccc2)C1c1cccc([N+](=O)[O-])c1 (centres undefined)	> 10 µM (inactive)
Nc1nc(=S)c2[nH]cnc2[nH]1	> 10 µM (inactive)
CC(C)=CCOc1ccc(/C=C/C(=O)c2ccc(OCC=C(C)C)cc2OCC(=O)O)cc1	> 10 µM (inactive)
CCC(C)(C)C(=O)O[C@H]1C[C@@H](C)C=C2C=C[C@H](C)[C@H](CC[C@@H]3C[C@@H](O)CC(=O)O3)[C@H]21	> 10 µM (inactive)
Nc1nc(Cl)nc2c1ncn2[C@@H]1O[C@H](CO)[C@@H](O)[C@@H]1F	> 10 µM (inactive)
COc1cc(NC(C)CCCN)c2ncccc2c1 (centres undefined)	> 10 µM (inactive)
CN(C)CCC=C1c2ccccc2CCc2ccccc21	> 10 µM (inactive)
Cc1ccc(Nc2nccc(N(C)c3ccc4c(C)n(C)nc4c3)n2)cc1S(N)(=O)=O	> 10 µM (inactive)

Structure (SMILES)	IC50
CC(=O)N(O)CCCCCNC(=O)CCC(=O)N(O)CCCCCNC(=O)CCC(=O)N(O)CCCCCN	> 10 µM (inactive)
COc1c(C)c2c(c(O)c1C/C=C(\C)CCC(=O)OCCN1CCOCC1)C(=O)OC2	0.0147 µM
CCCCCCCCCCCCCCCC[n+]1ccccc1	> 10 µM (inactive)
CO[C@@]12[C@H](COC(N)=O)C3=C(C(=O)C(C)=C(N)C3=O)N1C[C@@H]1N[C@@H]12	0.143 µM
COc1cccc2c1C(=O)c1c(O)c3c(c(O)c1C2=O)C[C@@](O)(C(=O)CO)C[C@@H]3O[C@H]1C[C@H](N)[C@H](O[C@@H]2CCCCO2)[C@H](C)O1	1.75 µM
Nc1ccc2cc3ccc(N)cc3nc2c1	3.44 µM
Cc1cc(N)c2ccccc2[n+]1CCCCCCCCCC[n+]1c(C)cc(N)c2ccccc21	> 10 µM (inactive)
O=C(CCBr)N1CCN(C(=O)CCBr)CC1	> 10 µM (inactive)
O=C(O)CN(CCN(CC(=O)O)CC(=O)O)CCN(CC(=O)O)CC(=O)O	> 10 µM (inactive)
COC(=O)Nc1nc2ccc(Sc3ccccc3)cc2[nH]1	> 10 µM (inactive)
CCCCCCCCCCCC(=O)[O][Sn]([CH2]CCC)([CH2]CCC)[O]C(=O)CCCCCCCCCCC	> 10 µM (inactive)
O=C(Nc1ccc([N+](=O)[O-])cc1Cl)c1cc(Cl)ccc1O	> 10 µM (inactive)
CC[C@H](C)C(=O)O[C@H]1C[C@@H](C)C=C2C=C[C@H](C)[C@H](CC[C@@H]3C[C@@H](O)CC(=O)O3)[C@H]21	> 10 µM (inactive)
O=c1[nH]c(=O)n([C@H]2C[C@H](O)[C@@H](CO)O2)cc1Br	> 10 µM (inactive)
O=c1[nH]c(=O)n([C@H]2C[C@H](O)[C@@H](CO)O2)cc1F	0.169 µM
CCCCOC(=O)c1ccc(N)cc1	> 10 µM (inactive)
OC[C@H]1O[C@@H](n2cnc3c(=S)nc[nH]c32)[C@H](O)[C@@H]1O	> 10 µM (inactive)
CN(C)CCOC(c1ccccc1)c1ccc(Br)cc1 (centres undefined)	> 10 µM (inactive)
Cc1nc(N)nc(N)c1-c1ccc(Cl)c(Cl)c1	> 10 µM (inactive)
COc1ccc2cc1Oc1ccc(cc1)C[C@H]1c3c(cc4c(c3Oc3cc5c(cc3OC)CCN(C)[C@@H]5C2)OCO4)CCN1C	> 10 µM (inactive)
C[C@@H](O[C@H]1OCCN(Cc2n[nH]c(=O)[nH]2)[C@H]1c1ccc(F)cc1)c1cc(C(F)(F)F)cc(C(F)(F)F)c1	> 10 µM (inactive)
[O-][n+]1ccccc1SSc1cccc[n+]1[O-]	> 10 µM (inactive)
C=CC(=O)Nc1cc2c(Nc3ccc(F)c(Cl)c3)ncnc2cc1OCCCN1CCOCC1	> 10 µM (inactive)

Structure (SMILES)	IC50
O=[N+]([O-])c1ccc(O)c2ncccc12	> 10 µM (inactive)
CC(C)(C)C1CCC(CC2=C(O)c3ccccc3C(=O)C2=O)CC1 (centres undefined)	> 10 µM (inactive)
CO[C@@H]1[C@@H](OC)[C@H](C)[C@@](O)(CC(=O)O)O[C@H]1[C@H](C)[C@H]1O[C@@]2(CC[C@@](C)([C@H]3CC[C@@](C)([C@@H]4O[C@@H]([C@H]5O[C@](C)(O)[C@H](C)C[C@@H]5C)C[C@@H]4OC4C[C@H](OC)[C@@H](OC)[C@H](C)O4)O3)O2)C[C@H](O)[C@H]1C (some centres undefined)	> 10 µM (inactive)
CCN(CC)CCCC(C)Nc1c2ccc(Cl)cc2nc2ccc(OC)cc12 (centres undefined)	2.26 µM
COCc1c(C(C)C)nc(C(C)C)c(/C=C/[C@@H](O)C[C@@H](O)CC(=O)O)c1-c1ccc(F)cc1	> 10 µM (inactive)
CCOc1ccc2nc3cc(N)ccc3c(N)c2c1	> 10 µM (inactive)
CC(C)=CCC/C(C)=C/CC/C(C)=C/C(=O)OCC(=O)[C@@]1(O)CC[C@H]2[C@@H]3CCC4=CC(=O)C=C[C@]4(C)[C@H]3[C@@H](O)C[C@@]21C	> 10 µM (inactive)
Fc1ccc(C(OCCN2CCN(CCCc3ccccc3)CC2)c2ccc(F)cc2)cc1	> 10 µM (inactive)
Cc1cc2c(C(C)C)c(O)c(O)c(C=O)c2c(O)c1-c1c(C)cc2c(C(C)C)c(O)c(O)c(C=O)c2c1O	> 10 µM (inactive)
Nc1nc(=O)n([C@@H]2O[C@H](CO)[C@@H](O)[C@@H]2F)cc1I	> 10 µM (inactive)
O=C(c1cc(O)c(O)c(O)c1)c1ccc(O)c(O)c1O	> 10 µM (inactive)
CN(C)/N=N/c1nc[nH]c1C(N)=O	> 10 µM (inactive)
CC(=O)O[C@@]12CO[C@@H]1C[C@H](O)[C@@]1(C)C(=O)[C@H](O)C3=C(C)[C@@H](OC(=O)[C@H](O)[C@@H](NC(=O)OC(C)(C)C)c4ccccc4)C[C@@](O)([C@@H](OC(=O)c4ccccc4)[C@H]21)C3(C)C	> 10 µM (inactive)
CCCSc1ccc2nc(NC(=O)OC)[nH]c2c1	> 10 µM (inactive)
O=C1c2c(O)cccc2Cc2cccc(O)c21	> 10 µM (inactive)
NC(N)=NN=C(/C=C/c1ccc([N+](=O)[O-])o1)/C=C/c1ccc([N+](=O)[O-])o1	> 10 µM (inactive)
CCCCc1ccc2nc(NC(=O)OC)[nH]c2c1	> 10 µM (inactive)
CCN(CC)CCOc1ccc(C(O)(Cc2ccc(Cl)cc2)c2ccc(C)cc2)cc1 (centres undefined)	> 10 µM (inactive)
Cc1cc(O)c2ccccc2c1O	> 10 µM (inactive)
CCN(CC)CCOc1ccccc1C(=O)CCc1ccccc1	> 10 µM (inactive)
